ChEMBL document CHEMBL5303573, “Mapping human microbiome drug metabolism by gut bacteria and their genes” (Nature, 2019)

Legend:
[1] = The drug is tested on Bacteroides fragilis strain: ATCC43859 for biotransformation. The drug concentrations were measured before and after a 12-h incubation by liquid-chromatography-coupled mass spectrometry (LC–MS); details: 2 µM
[2] = bacteroides thetaiotaomicron, 12 h, 2 µM
Description: The drug is tested on Bacteroides thetaiotaomicron strain: 7330 for biotransformation. The drug concentrations were measured before and after a 12-h incubation by liquid-chromatography-coupled mass spectrometry (LC–MS)

[3] = The drug is tested on Blautia luti strain: DSM14534 for biotransformation. The drug concentrations were measured before and after a 12-h incubation by liquid-chromatography-coupled mass spectrometry (LC–MS); format: ADME; design: dose 2 uM, timepoint 0 vs 12 hours; details: 2 µM
[4] = The drug is tested on Clostridium ramosum strain: DSM1402 for biotransformation. The drug concentrations were measured before and after a 12-h incubation by liquid-chromatography-coupled mass spectrometry (LC–MS); details: thomasclavelia ramosa, 2 µM
[5] = The drug is tested on Providencia rettgeri strain: DSM1131 for biotransformation. The drug concentrations were measured before and after a 12-h incubation by liquid-chromatography-coupled mass spectrometry (LC–MS); format: ADME; design: dose 2 uM, timepoint 0 vs 12 hours; details: 2 µM
[6] = The drug is tested on Eubacterium ventriosum strain: ATCC27560 for biotransformation. The drug concentrations were measured before and after a 12-h incubation by liquid-chromatography-coupled mass spectrometry (LC–MS); format: ADME; design: dose 2 uM, timepoint 0 vs 12 hours; details: 2 µM
[7] = The drug is tested on Bacteroides coprophilus strain: DSM18228 for biotransformation. The drug concentrations were measured before and after a 12-h incubation by liquid-chromatography-coupled mass spectrometry (LC–MS); details: 2 µM
[8] = The drug is tested on Ruminococcus torques strain: ATCC27756 for biotransformation. The drug concentrations were measured before and after a 12-h incubation by liquid-chromatography-coupled mass spectrometry (LC–MS); format: ADME; design: dose 2 uM, timepoint 0 vs 12 hours; details: 2 µM
[9] = The drug is tested on Bacteroides xylanisolvens strain: DSM18836 for biotransformation. The drug concentrations were measured before and after a 12-h incubation by liquid-chromatography-coupled mass spectrometry (LC–MS); details: 2 µM
[10] = The drug is tested on Bacteroides sp. WH2 strain: WH2 for biotransformation. The drug concentrations were measured before and after a 12-h incubation by liquid-chromatography-coupled mass spectrometry (LC–MS); details: bacteroides sp. wh2, 12 h, 2 µM
[11] = The drug is tested on Edwardsiella tarda strain: ATCC23685 for biotransformation. The drug concentrations were measured before and after a 12-h incubation by liquid-chromatography-coupled mass spectrometry (LC–MS); details: 2 µM
[12] = The drug is tested on Coprococcus comes strain: ATCC27758 for biotransformation. The drug concentrations were measured before and after a 12-h incubation by liquid-chromatography-coupled mass spectrometry (LC–MS); format: ADME; design: dose 2 uM, timepoint 0 vs 12 hours; details: 2 µM
[13] = The drug is tested on Clostridium symbiosum strain: ATCC14940 for biotransformation. The drug concentrations were measured before and after a 12-h incubation by liquid-chromatography-coupled mass spectrometry (LC–MS); details: 2 µM
[14] = akkermansia muciniphila, 12 h, 2 µM
Description: The drug is tested on Akkermansia muciniphila strain: ATCC BAA-835 for biotransformation. The drug concentrations were measured before and after a 12-h incubation by liquid-chromatography-coupled mass spectrometry (LC–MS)

[15] = The drug is tested on Enterococcus faecalis strain: V583 for biotransformation. The drug concentrations were measured before and after a 12-h incubation by liquid-chromatography-coupled mass spectrometry (LC–MS); details: 2 µM
[16] = The drug is tested on Bacteroides ovatus strain: ATCC8483 for biotransformation. The drug concentrations were measured before and after a 12-h incubation by liquid-chromatography-coupled mass spectrometry (LC–MS); details: 2 µM
[17] = bacteroides eggerthii, 12 h, 2 µM
Description: The drug is tested on Bacteroides eggerthii strain: DSM20697 for biotransformation. The drug concentrations were measured before and after a 12-h incubation by liquid-chromatography-coupled mass spectrometry (LC–MS)

[18] = The drug is tested on Bacteroides dorei strain: DSM17855 for biotransformation. The drug concentrations were measured before and after a 12-h incubation by liquid-chromatography-coupled mass spectrometry (LC–MS); details: phocaeicola dorei, 2 µM

SMILES	Bacterial Biotransformation [1]	Bacterial Biotransformation [2]	Bacterial Biotransformation [3]	Bacterial Biotransformation [4]	Bacterial Biotransformation [5]	Bacterial Biotransformation [6]	Bacterial Biotransformation [7]	Bacterial Biotransformation [8]	Bacterial Biotransformation [9]	Bacterial Biotransformation [10]	Bacterial Biotransformation [11]	Bacterial Biotransformation [12]	Bacterial Biotransformation [13]	Bacterial Biotransformation [15]	Bacterial Biotransformation [16]	Bacterial Biotransformation [17]	Bacterial Biotransformation [14]	Bacterial Biotransformation [18]
CCN(CC)CCNC(=O)c1ccc(NC(C)=O)cc1 [ACECAINIDE]	Compound metabolized	Compound NOT metabolized	Compound NOT metabolized	Compound NOT metabolized	Compound NOT metabolized	Compound NOT metabolized	Compound NOT metabolized	Compound NOT metabolized	Compound NOT metabolized	Compound NOT metabolized	Compound NOT metabolized	Compound NOT metabolized	Compound NOT metabolized	Compound NOT metabolized	–	–	Compound NOT metabolized	–
C[N+]12CCC(CC1)C(OC(=O)C(O)(c1ccccc1)c1ccccc1)C2.[Br-] (stereo not drawn) [CLIDINIUM BROMIDE]	–	Compound NOT metabolized	Compound NOT metabolized	–	Compound NOT metabolized	Compound NOT metabolized	Compound NOT metabolized	–	Compound NOT metabolized	Compound NOT metabolized	Compound NOT metabolized	Compound NOT metabolized	Compound NOT metabolized	Compound NOT metabolized	Compound NOT metabolized	Compound NOT metabolized	Compound NOT metabolized	Compound NOT metabolized

Further lines, with some results ahead:

Bacterial Biotransformation [1]	Bacterial Biotransformation [2]	Bacterial Biotransformation [3]	Bacterial Biotransformation [4]	Bacterial Biotransformation [5]	Bacterial Biotransformation [6]	Bacterial Biotransformation [7]	Bacterial Biotransformation [8]	Bacterial Biotransformation [9]	Bacterial Biotransformation [10]	Bacterial Biotransformation [11]	Bacterial Biotransformation [12]	Bacterial Biotransformation [13]	Bacterial Biotransformation [15]	Bacterial Biotransformation [16]	Bacterial Biotransformation [17]	SMILES	Bacterial Biotransformation [14]	Bacterial Biotransformation [18]
–	Compound NOT metabolized	Compound NOT metabolized	Compound NOT metabolized	Compound NOT metabolized	Compound NOT metabolized	Compound NOT metabolized	Compound NOT metabolized	Compound NOT metabolized	Compound NOT metabolized	Compound NOT metabolized	Compound NOT metabolized	Compound NOT metabolized	Compound NOT metabolized	Compound NOT metabolized	Compound NOT metabolized	CN(C)CCc1c[nH]c2ccc(CS(=O)(=O)N3CCCC3)cc12 [ALMOTRIPTAN]	–	–
Compound NOT metabolized	Compound NOT metabolized	Compound NOT metabolized	Compound NOT metabolized	Compound NOT metabolized	Compound NOT metabolized	–	Compound NOT metabolized	Compound NOT metabolized	Compound NOT metabolized	Compound NOT metabolized	Compound NOT metabolized	Compound NOT metabolized	Compound NOT metabolized	Compound NOT metabolized	Compound NOT metabolized	Clc1ccc(Cn2c(CN3CCCC3)nc3ccccc32)cc1 [CLEMIZOLE]	–	–
–	–	Compound NOT metabolized	Compound NOT metabolized	–	Compound NOT metabolized	Compound NOT metabolized	Compound NOT metabolized	Compound NOT metabolized	Compound NOT metabolized	Compound NOT metabolized	Compound NOT metabolized	Compound NOT metabolized	Compound NOT metabolized	Compound NOT metabolized	Compound NOT metabolized	CN(C)CCC=C1c2ccccc2C=Cc2ccccc21 [CYCLOBENZAPRINE]	–	–
